Measured values taken from ChEMBL document CHEMBL1201862, “PubChem BioAssay data set” (2004).
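Briefly, cells in 96-well plates were exposed to five compound concentrations for 48 h, and endpoints were estimated by linear interpolation. Here, GI50 denotes the concentration required for 50% inhibition of growth.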 Activity calls are given as the source filed them. No stated cut-off is given here; in the data, active = GI50 up to about 1.1 µM and inactive = higher.

Legend:
Experiment in all cases: inhibition of tumour cell growth, NCI panel, 48 h
[1] = tested on: BT-549
[2] = tested on: CAKI-1
[3] = tested on: COLO 205
[4] = tested on: EKVX
[5] = tested on: HCT-116
[6] = tested on: K562
[7] = tested on: NCI-H226
[8] = tested on: NCI-H522
[9] = tested on: OVCAR-5
[10] = tested on: PC-3
[11] = tested on: SF-268
[12] = tested on: SF-295
[13] = tested on: SK-MEL-28
[14] = tested on: SK-MEL-5
[15] = tested on: SN12C
[16] = tested on: SNB-19
[17] = tested on: SR
[18] = tested on: UACC-257
[19] = tested on: MOLT-4

SMILES	GI50 [1]	GI50 [2]	GI50 [3]	GI50 [4]	GI50 [5]	GI50 [6]	GI50 [7]	GI50 [8]	GI50 [9]	GI50 [10]	GI50 [11]	GI50 [12]	GI50 [13]	GI50 [14]	GI50 [15]	GI50 [16]	GI50 [17]	GI50 [18]	GI50 [19]
CN(C)CCCNc1cc(O)c2c(c1O)C(=O)c1ccccc1C2=O	17 µM (inactive)	13 µM (inactive)	11.5 µM (inactive)	15 µM (inactive)	4.9 µM (inactive)	2.79 µM (inactive)	18.2 µM (inactive)	21.8 µM (inactive)	18.9 µM (inactive)	13.8 µM (inactive)	16.8 µM (inactive)	13.1 µM (inactive)	16.4 µM (inactive)	13.2 µM (inactive)	3.48 µM (inactive)	6.9 µM (inactive)	3.01 µM (inactive)	13.6 µM (inactive)	
CC1OC(O[C@H]2C3C=CO[C@@H](OC4OC(CO)C(O)C(O)C4O)C3[C@@]3(COC(=O)/C=C/c4ccccc4)O[C@@H]23)C(O)C(O)C1O (some centres not stated)	> 100 µM (inactive)	> 100 µM (inactive)	> 100 µM (inactive)	> 100 µM (inactive)	> 100 µM (inactive)	> 100 µM (inactive)	> 100 µM (inactive)	> 100 µM (inactive)	> 100 µM (inactive)	> 100 µM (inactive)	> 100 µM (inactive)	> 100 µM (inactive)	> 100 µM (inactive)	> 100 µM (inactive)	> 100 µM (inactive)	> 100 µM (inactive)		> 100 µM (inactive)	> 100 µM (inactive)
O[C@@]12Cc3c([nH]c4ccccc34)[C@@H]3Oc4c(-c5ccccc5)ccc5c4[C@@]31CCN(CC1CC1)[C@@H]2C5	10.8 µM (inactive)	2.97 µM (inactive)	1.81 µM (inactive)	2.01 µM (inactive)	1.73 µM (inactive)	2.33 µM (inactive)		1.77 µM (inactive)	4.11 µM (inactive)	1.84 µM (inactive)	3.42 µM (inactive)	1.69 µM (inactive)	1.71 µM (inactive)	1.83 µM (inactive)		1.88 µM (inactive)	2.79 µM (inactive)	1.84 µM (inactive)	3.07 µM (inactive)
C=CC(C)CCC(C/C=C(\C)CCC=C(C)C)C(=C)CCCC(C)C (configuration not stated)	> 100 µM (inactive)	> 100 µM (inactive)	> 100 µM (inactive)	> 100 µM (inactive)	> 100 µM (inactive)	> 100 µM (inactive)		> 100 µM (inactive)	> 100 µM (inactive)	> 100 µM (inactive)	> 100 µM (inactive)	> 100 µM (inactive)	> 100 µM (inactive)	> 100 µM (inactive)	> 100 µM (inactive)	> 100 µM (inactive)	> 100 µM (inactive)	> 100 µM (inactive)	> 100 µM (inactive)
O=C(O)C12C3CCC(CC3)C1(C(=O)O)C1CCC2C1 (configuration not stated)	> 100 µM (inactive)	> 100 µM (inactive)	> 100 µM (inactive)		> 100 µM (inactive)	> 100 µM (inactive)	> 100 µM (inactive)	86.1 µM (inactive)	> 100 µM (inactive)	> 100 µM (inactive)	> 100 µM (inactive)	> 100 µM (inactive)	> 100 µM (inactive)	> 100 µM (inactive)	> 100 µM (inactive)	> 100 µM (inactive)	< 0.01 µM (active)	> 100 µM (inactive)	> 100 µM (inactive)
CC1=NN(C2=NS(=O)(=O)c3ccccc3N2C)C(=O)C1	> 100 µM (inactive)	> 100 µM (inactive)	> 100 µM (inactive)	> 100 µM (inactive)	> 100 µM (inactive)	> 100 µM (inactive)	> 100 µM (inactive)	> 100 µM (inactive)	> 100 µM (inactive)	> 100 µM (inactive)	> 100 µM (inactive)	> 100 µM (inactive)	> 100 µM (inactive)	> 100 µM (inactive)	> 100 µM (inactive)	> 100 µM (inactive)		> 100 µM (inactive)	> 100 µM (inactive)
COc1cc(Br)cc2cc(-c3cn4ccsc4n3)c(=O)oc12	20.3 µM (inactive)	35 µM (inactive)	57.3 µM (inactive)	29.2 µM (inactive)	25.6 µM (inactive)	32.1 µM (inactive)		31 µM (inactive)	68.1 µM (inactive)	25.2 µM (inactive)	34.3 µM (inactive)	26.8 µM (inactive)	46.2 µM (inactive)	19.7 µM (inactive)	28.1 µM (inactive)	30.4 µM (inactive)	25.9 µM (inactive)	37.6 µM (inactive)	32 µM (inactive)
O=C1/C(=C/Cc2ccco2)N=C(c2ccccc2)N1c1nc2c(Cl)cc(Cl)cc2s1	26 µM (inactive)	32.6 µM (inactive)	40.5 µM (inactive)	15 µM (inactive)	27.7 µM (inactive)	25.1 µM (inactive)			52.2 µM (inactive)	28.3 µM (inactive)	40.3 µM (inactive)	32.1 µM (inactive)	57.1 µM (inactive)	22.5 µM (inactive)	27 µM (inactive)	34.3 µM (inactive)	14.9 µM (inactive)	34.4 µM (inactive)	1.02 µM (active)
OC1CN2Cc3cc4c(cc3[C@]13C=C[C@@H](O)CC23)OCO4 (some centres not stated)	33.4 µM (inactive)	11.9 µM (inactive)	22.3 µM (inactive)	15.4 µM (inactive)	14.2 µM (inactive)	23.7 µM (inactive)	> 100 µM (inactive)	27.3 µM (inactive)	23.9 µM (inactive)	27.6 µM (inactive)	29.3 µM (inactive)	33.6 µM (inactive)	48.4 µM (inactive)	22.9 µM (inactive)	25.1 µM (inactive)	22.2 µM (inactive)	12.4 µM (inactive)	7.89 µM (inactive)	16.6 µM (inactive)
CCCCNC(=S)N/C=C1\C(=O)Nc2ccccc2C1=O	> 10 µM (inactive)	> 10 µM (inactive)	> 10 µM (inactive)	> 10 µM (inactive)		> 10 µM (inactive)	> 10 µM (inactive)		> 10 µM (inactive)	> 10 µM (inactive)	> 10 µM (inactive)	> 10 µM (inactive)	> 10 µM (inactive)		> 10 µM (inactive)	> 10 µM (inactive)	> 10 µM (inactive)	> 10 µM (inactive)	> 10 µM (inactive)
CCOC(=O)C(CS)NC(=O)CCCCCCCC(=O)NC(CS)C(=O)OCC (configuration not stated)	> 100 µM (inactive)	> 100 µM (inactive)	> 100 µM (inactive)	> 100 µM (inactive)	> 100 µM (inactive)	> 100 µM (inactive)	> 100 µM (inactive)	49.1 µM (inactive)	> 100 µM (inactive)	> 100 µM (inactive)		> 100 µM (inactive)	> 100 µM (inactive)	> 100 µM (inactive)	> 100 µM (inactive)	37.4 µM (inactive)	36.3 µM (inactive)	34.4 µM (inactive)	32.4 µM (inactive)
CON(C)C(=O)[C@H]1C[C@@]1(C)CO	> 100 µM (inactive)	> 100 µM (inactive)	> 100 µM (inactive)	> 100 µM (inactive)	> 100 µM (inactive)	> 100 µM (inactive)	> 100 µM (inactive)		> 100 µM (inactive)	> 100 µM (inactive)	> 100 µM (inactive)	> 100 µM (inactive)	> 100 µM (inactive)	> 100 µM (inactive)	> 100 µM (inactive)	> 100 µM (inactive)	> 100 µM (inactive)	> 100 µM (inactive)	> 100 µM (inactive)
CON(C)C(=O)C(C)NC(=O)OC(C)(C)C (configuration not stated)	> 100 µM (inactive)		> 100 µM (inactive)	> 100 µM (inactive)	> 100 µM (inactive)	> 100 µM (inactive)	> 100 µM (inactive)		> 100 µM (inactive)	> 100 µM (inactive)	> 100 µM (inactive)	> 100 µM (inactive)	> 100 µM (inactive)	> 100 µM (inactive)	> 100 µM (inactive)	> 100 µM (inactive)	> 100 µM (inactive)	> 100 µM (inactive)	> 100 µM (inactive)
C[n+]1c(-c2ccc(/C=N\NC(=O)c3ccc(C(=O)N/N=C/c4ccc(-c5cn6ccsc6[n+]5C)cc4)cc3)cc2)cn2ccsc21	16.5 µM (inactive)	18.7 µM (inactive)	25 µM (inactive)	15.8 µM (inactive)		14 µM (inactive)	16.9 µM (inactive)	31.1 µM (inactive)	17.3 µM (inactive)	17.4 µM (inactive)				16.5 µM (inactive)	19.4 µM (inactive)	24.6 µM (inactive)	17.3 µM (inactive)	21.7 µM (inactive)	15.2 µM (inactive)
Cc1nc2ccccc2n1Cc1nnc(-c2ccccc2)o1	> 100 µM (inactive)		74.6 µM (inactive)	> 100 µM (inactive)	46.2 µM (inactive)	33.9 µM (inactive)		> 100 µM (inactive)	> 100 µM (inactive)	> 100 µM (inactive)	> 100 µM (inactive)	> 100 µM (inactive)	> 100 µM (inactive)	55 µM (inactive)	> 100 µM (inactive)	> 100 µM (inactive)	43.6 µM (inactive)	> 100 µM (inactive)	41.8 µM (inactive)
